Holding throughout (conditions): substrate 3KB-G5-CNP, hydrolysis
Assay [1] addresses Saccharomycopsis fibuligera α-amylase (Sfamy) variant SfamyY83N, Y83N, SEQ ID NO: 8 (Saccharomycopsis fibuligera, UniProt P21567, Y109N).
Description: (§1) Furthermore, using a substrate with both its non-reducing end terminus and its reducing end terminus modified, i.e. 3KB-G5 -CNP (chloronitrophenyl maltopentaose wherein the hydroxyl group at position 3 of the glucose residue at the non-reducing end terminus is ketobutylated; manufactured by Ono Pharmaceutical Company), the hydrolysis activities of the wild-type enzyme and the variant-type enzymes were determined. 3KB-G5 -CNP cannot function as a substrate for transglycosylation reaction because of the modification of both of the termini, and therefore, only the hydrolysis activity can be assayed.
For assay [2], the target named is Saccharomycopsis fibuligera α-amylase (Sfamy) variant SfamyY83L, Y83L, SEQ ID NO: 6 (Saccharomycopsis fibuligera, UniProt P21567, Y109L).
Description: as §1
The target in assay [3] is Saccharomycopsis fibuligera α-amylase (Sfamy) variant SfamyY83W, Y83W, SEQ ID NO: 4 (Saccharomycopsis fibuligera, UniProt P21567, Y109W).
Saccharomycopsis fibuligera α-amylase (Sfamy) variant SfamyY83W, Y83W, SEQ ID NO: 4, sequence (P21567 27-494 Y109W): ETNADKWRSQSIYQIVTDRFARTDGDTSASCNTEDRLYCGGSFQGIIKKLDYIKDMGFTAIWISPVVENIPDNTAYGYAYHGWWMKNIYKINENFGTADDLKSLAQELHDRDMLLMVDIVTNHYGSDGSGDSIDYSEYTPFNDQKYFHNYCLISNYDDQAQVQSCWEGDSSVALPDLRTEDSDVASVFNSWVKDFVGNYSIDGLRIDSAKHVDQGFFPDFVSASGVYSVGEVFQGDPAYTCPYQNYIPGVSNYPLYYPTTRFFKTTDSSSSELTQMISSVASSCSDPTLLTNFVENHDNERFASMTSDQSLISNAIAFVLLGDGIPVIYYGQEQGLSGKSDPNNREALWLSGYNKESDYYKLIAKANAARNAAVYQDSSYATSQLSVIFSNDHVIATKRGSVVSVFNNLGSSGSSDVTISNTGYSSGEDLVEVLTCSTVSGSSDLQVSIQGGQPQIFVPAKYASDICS
Description: as §1
Assay [4] addresses Saccharomycopsis fibuligera α-amylase (Sfamy) variant SfamyY83F, Y83F, SEQ ID NO: 2 (Saccharomycopsis fibuligera, UniProt P21567, A249P/Y109F).
Description: as §1
The target of assay [5] is T1, Saccharomycopsis fibuligera α-amylase (Sfamy), wild type (Saccharomycopsis fibuligera, UniProt P21567).
T1 sequence (P21567 27-494): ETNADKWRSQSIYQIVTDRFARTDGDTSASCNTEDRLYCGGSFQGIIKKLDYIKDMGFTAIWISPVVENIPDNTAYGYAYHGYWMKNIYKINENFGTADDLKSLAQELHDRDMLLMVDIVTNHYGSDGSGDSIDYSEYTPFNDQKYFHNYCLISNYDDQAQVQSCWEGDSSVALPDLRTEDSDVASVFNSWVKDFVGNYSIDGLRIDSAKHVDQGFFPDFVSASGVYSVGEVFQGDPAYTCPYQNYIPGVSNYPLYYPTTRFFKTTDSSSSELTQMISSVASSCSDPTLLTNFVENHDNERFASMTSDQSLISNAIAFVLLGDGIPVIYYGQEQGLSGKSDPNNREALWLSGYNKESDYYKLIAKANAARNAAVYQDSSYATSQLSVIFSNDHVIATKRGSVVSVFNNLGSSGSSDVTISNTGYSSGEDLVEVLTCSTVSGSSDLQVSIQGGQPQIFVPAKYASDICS
Description: as §1

The values below come from patent US5538882A, “Variant-type carbohydrate hydrolase, variant gene of the enzyme and method for producing oligosaccharide using the enzyme” (priority 1993, dated 1996).

Saccharomycopsis fibuligera α-amylase (Sfamy) variant SfamyY83F, Y83F, SEQ ID NO: 2, sequence (P21567 27-494 Y109F/A249P): as the sequence (P21567 27-494 Y109W) above, with W83F, A223P counted along it
Saccharomycopsis fibuligera α-amylase (Sfamy) variant SfamyY83N, Y83N, SEQ ID NO: 8, sequence (P21567 27-494 Y109N): as the sequence (P21567 27-494 Y109W) above, with W83N counted along it
Saccharomycopsis fibuligera α-amylase (Sfamy) variant SfamyY83L, Y83L, SEQ ID NO: 6, sequence (P21567 27-494 Y109L): as the sequence (P21567 27-494 Y109W) above, with W83L counted along it

Turning to `CC(=O)CC1OC[C@H]2O[C@H](O[C@H]3[C@H](O)[C@@H](O)[C@@H](O[C@H]4[C@H](O)[C@@H](O)[C@@H](O[C@H]5[C@H](O)[C@@H](O)[C@@H](O[C@H]6[C@H](O)[C@@H](O)[C@H](Oc7ccc([N+](=O)[O-])cc7Cl)O[C@@H]6CO)O[C@@H]5CO)O[C@@H]4CO)O[C@@H]3CO)[C@H](O)[C@@H](O)[C@@H]2O1` (stereo partly drawn) [3KB-G5 -CNP], the Km was 190 µM in assay [1]; 120 µM in assay [2]; 150 µM in assay [3]; 130 µM in assay [4]; 60 µM in assay [5]. In addition, the kcat in assay [1] is 0.267 s⁻¹; in assay [2], 0.183 s⁻¹; in assay [3], 2.17 s⁻¹; in assay [4] it was 2.5 s⁻¹; in assay [5] it was 15.3 s⁻¹. Moreover, the kcat/Km was determined as 1430 M⁻¹ s⁻¹ in assay [1]; 1550 M⁻¹ s⁻¹ in assay [2]; 14500 M⁻¹ s⁻¹ in assay [3]; 20000 M⁻¹ s⁻¹ in assay [4]; 250000 M⁻¹ s⁻¹ in assay [5].
